Assay [1] addresses T1, Dipeptidase 1 (Sus scrofa) (UniProt P22412).
T1 sequence (whole entry): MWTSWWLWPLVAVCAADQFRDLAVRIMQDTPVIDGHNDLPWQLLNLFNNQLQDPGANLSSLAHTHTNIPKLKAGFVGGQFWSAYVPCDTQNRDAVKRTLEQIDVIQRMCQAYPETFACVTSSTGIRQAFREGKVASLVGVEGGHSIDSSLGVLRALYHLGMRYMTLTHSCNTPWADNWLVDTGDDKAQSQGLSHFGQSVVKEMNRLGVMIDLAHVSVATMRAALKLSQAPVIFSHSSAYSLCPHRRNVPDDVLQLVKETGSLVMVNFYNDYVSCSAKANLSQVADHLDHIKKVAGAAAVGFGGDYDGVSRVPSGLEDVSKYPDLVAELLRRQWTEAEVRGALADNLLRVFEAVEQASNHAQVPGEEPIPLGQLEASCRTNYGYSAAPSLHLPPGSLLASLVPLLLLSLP
Briefly: Susceptibility of compound towards porcine Dehydropeptidase-1 relative to imipenem as […] was calculated.

The next assay relates to Enterococcus. Briefly: In vitro antibacterial activity against Enterococcus relative to thienamycin. The format is functional.
The subject of the next assay is Escherichia coli. Description: In vitro antibacterial activity against Escherichia coli relative to thienamycin. The class given is functional.
The next assay concerns Enterobacter. Briefly: In vitro antibacterial activity against Enterobacter relative to thienamycin. The class given is functional.
Another assay relates to Klebsiella. Description: In vitro antibacterial activity against Klebsiella relative to thienamycin. The format is functional.
The test system of a further assay is Pseudomonas. Description: In vitro antibacterial activity against Pseudomonas relative to thienamycin. The format is functional.
The next assay has as its system Proteus. Description: In vitro antibacterial activity against Proteus relative to thienamycin. The format is functional, Proteus sp.
The subject of the next assay is Serratia. Briefly: In vitro antibacterial activity against Serratia relative to thienamycin. The class given is functional.
The test system of another assay is Staphylococcus aureus. Briefly: In vitro antibacterial activity against Staphylococcus aureus (4) relative to Thienamycin (1). The format is functional.

Regarding `C[C@@H](O)[C@H]1C(=O)N2C(C(=O)[O-])=C(c3ccc(C[n+]4ccc(CCS(=O)(=O)[O-])cc4)cc3)C[C@H]12.[K+]`, the Susceptibility in assay [1] is 0.06. Besides, the Relative potency with Enterococcus turned out to be 4.3; in the assay on Escherichia coli it was 5.7; in the assay on Enterobacter, 7; in the assay with Klebsiella, 1.1; with Pseudomonas it was 0.04; in the assay on Proteus, 17.1. Besides, the figures for the Relative potency in the assay on Serratia and in the assay on Staphylococcus aureus were 10.6 and 0.4, respectively.
Consider `Cc1cc[n+](Cc2ccc(C3=C(C(=O)[O-])N4C(=O)[C@H]([C@@H](C)O)[C@H]4C3)cc2)cc1`, for which the Susceptibility in assay [1] was 0.06. The Relative potency in the assay with Enterococcus came out at 14.9; in the assay on Escherichia coli, 4.6; with Enterobacter, 9.2; with Klebsiella it was 2.8; with Pseudomonas, 0.1; with Proteus, 12.1. In addition, the Relative potency in the assay with Serratia came to 22.6; with Staphylococcus aureus, 1.1.
In the case of `C[C@@H](O)[C@H]1C(=O)N2C(C(=O)[O-])=C(c3ccc(C[n+]4cccc(CSCCC#N)c4)cc3)C[C@H]12`, in assay [1], the Susceptibility is 0.05. Further, the Relative potency with Enterococcus came out at 8; in the assay on Escherichia coli, 8; in the assay with Enterobacter, 8.6; with Klebsiella, 4.6; with Pseudomonas it was 0.08; in the assay on Proteus, 7. In addition, the Relative potency was 14.9 with Serratia and 1 in the assay with Staphylococcus aureus.
Consider `C[C@@H](O)[C@H]1C(=O)N2C(C(=O)[O-])=C(c3ccc(C[n+]4ccc(CS(=O)(=O)[O-])cc4)cc3)C[C@H]12.[K+]`, for which the Susceptibility in assay [1] was 0.06. Besides, the Relative potency was determined as 3.5 in the assay with Enterococcus; 6.5 with Escherichia coli; 9.2 in the assay on Enterobacter; 1.6 with Klebsiella; 0.04 in the assay on Pseudomonas; 9.8 with Proteus. The values for the Relative potency in the assay with Serratia and with Staphylococcus aureus were 9.8 and 0.5, respectively.
Take `C[C@@H](O)[C@H]1C(=O)N2C(C(=O)[O-])=C(c3ccc(C[n+]4cccc(C(=O)N(C)C)c4)cc3)C[C@H]12`: the Susceptibility in [1] was 0.05. The Relative potency with Enterococcus was determined as 5.7; in the assay on Escherichia coli it was 2.3; in the assay on Enterobacter it was 3.5; with Klebsiella it was 1.1; with Pseudomonas, 0.04; in the assay on Proteus, 4.6. Further, the results for the Relative potency in the assay on Serratia and in the assay on Staphylococcus aureus were 4 and 0.3, respectively.
Take `CSCc1ccc[n+](Cc2ccc(C3=C(C(=O)[O-])N4C(=O)[C@H]([C@@H](C)O)[C@H]4C3)cc2)c1`: the Susceptibility in assay [1] is 0.05. Further, the Relative potency is recorded as 19.7 with Enterococcus; 6.1 in the assay on Escherichia coli; 10.6 with Enterobacter; 3.7 in the assay on Klebsiella; 0.08 in the assay on Pseudomonas; 6.5 with Proteus. Also, the Relative potency came to 29.9 in the assay with Serratia and 1.9 in the assay on Staphylococcus aureus.
For `C[C@@H](O)[C@H]1C(=O)N2C(C(=O)[O-])=C(c3ccc(C[n+]4ccc(CN)cc4)cc3)C[C@H]12`, the Susceptibility in assay [1] is 0.04. The Relative potency in the assay on Enterococcus was 7; with Escherichia coli, 1.7; in the assay with Enterobacter, 2.6; in the assay on Klebsiella, 0.8; with Pseudomonas it was 0.05; with Proteus, 4.3. Further, the Relative potency with Serratia is listed as 6.1; with Staphylococcus aureus, 0.5.

The record behind these values is ChEMBL document CHEMBL1151043, “The synthesis and antibacterial activity of 2-para-quarternary ammoniomethylphenyl-carbapenems” (1993).
